The values that follow come from PubChem BioAssay AID977618 (Broad Institute, 2014).

Assay [1] can be described thus: HEK293T cell cytotoxicity, dose response, cytotoxicity control, CellTiter-Glo luminescence, dry powder, set 16 (AID 977618). To be noted: HEK293T viability, CellTiter-Glo ATP luminescence, 72 h; at 30 µM (top of the series). (Cellular ATP, detected with luciferase, serves as a proxy for viable cell number.)
The subject of assay [2] is HEK293T viability, CellTiter-Glo ATP luminescence, 72 h. The description is as above.

“And” between values parts separate entries of the source, which are not always exact repeats. Equal values may be shown once. The source made the active and inactive calls.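 Rule for the calls: active = compounds lowering the cell ATP signal with fitted AC50 at most twice the top tested dose; inconclusive = flat fit between -70 and -30, or a poor fit; inactive = the rest.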

For the compound `Cc1cnc(NC(=O)c2cc(S(=O)(=O)N3CCCCC3)ccc2N2CCCC2)s1`, in assay [1], the activity change, negative = cytotoxicity was 1.32% (inactive).
Same read-out and setting: in the case of `Cc1nc(NC(=O)c2cc(S(=O)(=O)N(C)C)ccc2N2CCCC2)n[nH]1` it was -1.85% (inactive).
Same read-out and setting: in the case of `CN(C)S(=O)(=O)c1ccc(N2CCCC2)c(C(=O)Nc2ccccc2Cl)c1` it was -6.21% (inactive); in that of `CN(C)CCCN(Cc1cc2ccccc2[nH]c1=O)C(=O)Nc1ccccc1`, -4.05% (inactive); in that of `Cc1cnc(NC(=O)c2cc(S(=O)(=O)NCc3ccccc3)ccc2N2CCCC2)s1`, -10.3% (inactive).
On the same count and under the same terms, then `CN(C)S(=O)(=O)c1ccc(N2CCCC2)c(C(=O)Nc2ccncc2)c1`, with -8.58% (inactive).
`CN(C)S(=O)(=O)c1ccc(N2CCCC2)c(C(=O)Nc2nccs2)c1`: the activity change, negative = cytotoxicity in assay [1] is -6.06% (inactive).
In the case of `Cc1cnc(NC(=O)c2cc(S(=O)(=O)N(C)C)ccc2N2CCCCC2)s1`, the activity change, negative = cytotoxicity in assay [1] is -9.94% (inactive).
For `Cc1cnc(NC(=O)c2cc(S(=O)(=O)N(C)C)ccc2N2CCC2)s1`, the activity change, negative = cytotoxicity in assay [1] was -5.02% (inactive).
On to `Cc1cnc(NC(=O)c2cc(S(=O)(=O)N(C)C)ccc2N2CCNCC2)s1`, for which the activity change, negative = cytotoxicity in assay [1] was -1.97% (inactive).
The same measure, in the same setting: in the case of `Cc1ccccc1NC(=O)c1cc(S(=O)(=O)N(C)C)ccc1N1CCCC1` it was -9.68% (inactive); in that of `CN(C)S(=O)(=O)c1ccc(N2CCCC2)c(C(=O)N2CCOCC2)c1`, -15.1% (inactive).
Still for that read-out and setting: then `Cc1cnc(NC(=O)c2cc(S(=O)(=O)N(C)C)ccc2N(C)C)s1`, with -10% (inactive); and `Cc1cnc(NC(=O)c2cc(S(=O)(=O)N3CCOCC3)ccc2N2CCCC2)s1`, with 9.35% (inactive).
The same measure, in the same setting: then `CN(C)S(=O)(=O)c1ccc(N2CCCC2)c(C(=O)NC2CCCCC2)c1`, with -11.1% (inactive).
Regarding `Cc1cnc(NC(=O)c2cc(S(=O)(=O)N3CCCC3)ccc2N2CCCC2)s1`, the activity change, negative = cytotoxicity in assay [1] is 16.8% (inactive).
Still for that read-out and setting: then `CN(C)S(=O)(=O)c1ccc(N2CCCC2)c(C(=O)Nc2cccc(F)c2)c1`, with -5.2% (inactive); and `Cc1ccc(NC(=O)c2cc(S(=O)(=O)N(C)C)ccc2N2CCCC2)cc1`, with -11.3% (inactive).
The same measure, in the same setting: then `Cc1cnc(NC(=O)c2cc(S(=O)(=O)N(C)c3ccccc3)ccc2N2CCCC2)s1`, with 1.78% (inactive); and `COc1ccccc1NC(=O)c1cc(S(=O)(=O)N(C)C)ccc1N1CCCC1`, with -2.97% (inactive); and `COc1ccc(NC(=O)c2cc(S(=O)(=O)N(C)C)ccc2N2CCCC2)cc1`, with -3.02% (inactive).
On to `CN(C)C(=O)c1cc(S(=O)(=O)N(C)C)ccc1N1CCCC1`, for which, in assay [1], the activity change, negative = cytotoxicity was 0.495% (inactive).
Still for that read-out and setting: in the case of `CN(C)S(=O)(=O)c1ccc(N2CCCC2)c(C(=O)Nc2cccnc2)c1` it was 3.26% (inactive).
Turning to `CCN(CC)S(=O)(=O)c1ccc(N2CCCC2)c(C(=O)Nc2ncc(C)s2)c1`, the activity change, negative = cytotoxicity in assay [1] was -2.95% (inactive).
Consider `Cc1csc(NC(=O)c2cc(S(=O)(=O)N(C)C)ccc2N2CCCC2)n1`, for which the activity change, negative = cytotoxicity in assay [1] was -4.9% (inactive).
For the compound `COc1cccc2sc(NC(=O)c3cc(S(=O)(=O)N(C)C)ccc3N3CCCC3)nc12`, the activity change, negative = cytotoxicity in assay [1] is -4.26% (inactive).
`Cc1cnc(NC(=O)c2cc(S(=O)(=O)N(C)C)ccc2C2CCCC2)s1`: the activity change, negative = cytotoxicity in assay [1] is -1.05% (inactive).
With `Cc1nnc(NC(=O)c2cc(S(=O)(=O)N(C)C)ccc2N2CCCC2)s1`, the activity change, negative = cytotoxicity in assay [1] is -7.43% (inactive).
As for `Cc1cnc(NC(=O)c2cccc(S(=O)(=O)N(C)C)c2)s1`, the activity change, negative = cytotoxicity in assay [1] was -1.48% (inactive).
Consider `Cc1cnc(NC(=O)c2cc(S(=O)(=O)N3CCNCC3)ccc2N2CCCC2)s1`, for which the activity change, negative = cytotoxicity in assay [1] was -12.1% (inactive).
Still for that read-out and setting: then `Cc1cnc(NC(=O)c2cc(S(=O)(=O)N(C)C)ccc2N2CCCC2)s1`, with 8.71% (inactive) and 10.8% (inactive).
As for `CN(C)CCCN(Cc1cc2ccccc2[nH]c1=O)C(=O)NCc1ccccc1`, the activity change, negative = cytotoxicity in assay [1] is -7.51% (inactive).
Usually AC50 stands for the midpoint of the concentration-response curve, whichever way the signal moves. As to `Cc1cnc(NC(=O)c2cc(S(=O)(=O)N(CC(C)C)CC(C)C)ccc2N2CCCC2)s1`, the AC50 in assay [2] was > 60 µM (inactive).
On to `COc1ccc2nc(NC(=O)c3cc(S(=O)(=O)N(C)C)ccc3N3CCCC3)sc2c1`, for which, in assay [1], the activity change, negative = cytotoxicity is -3.18% (inactive).
Same read-out and setting: then `COc1ccc2sc(NC(=O)c3cc(S(=O)(=O)N(C)C)ccc3N3CCCC3)nc2c1`, with 1.94% (inactive); and `CN(C)S(=O)(=O)c1ccc(N2CCCC2)c(C(=O)Nc2ccc(Br)cc2)c1`, with -1.97% (inactive); and `CN(C)S(=O)(=O)c1ccc(N2CCCC2)c(C(=O)Nc2ccccc2)c1`, with -5.37% (inactive).
Still for that read-out and setting: then `CN(C)S(=O)(=O)c1ccc(N2CCCC2)c(C(=O)Nc2nc3ccccc3s2)c1`, with 8.82% (inactive); and `CCN(CC)c1ccc(S(=O)(=O)N(C)C)cc1C(=O)Nc1ncc(C)s1`, with -18.6% (inactive); and `CN(C)S(=O)(=O)c1ccc(N2CCCC2)c(C(=O)Nc2ccccc2F)c1`, with -17.6% (inactive).
